Results on nine molecules are retold here after patent US20110059043A1, “CHEMICAL COMPOUNDS” (priority 2009, published 2011).

Each structure is given as a SMILES string. pIC50: −log10 of the molar value. Bounds are passed on as bounds.

For series [1], the system named is HCV replicon cells Huh 9B. It counts as cell-based. The note with it: concentration reducing total cell area by 50% relative to DMSO controls; 72 h. In short, it runs like this: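 Huh 9B replicon cells (luciferase-ubiquitin-neomycin fusion, EMCV-IRES-driven HCV polyprotein with adaptive mutations) were seeded from a 100,000 cells/ml suspension in G418-free medium, grown 24 h, then exposed to compound (dilutions at 1% DMSO) for 72 h at 37 °C. For toxicity, methylene blue staining was read at 620 nm and TD50 derived relative to DMSO controls.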

The target of series [2] is T1, Recombinant HCV polymerase (BK strain) (Hepatitis C virus genotype 1b, UniProt P26663).
T1 construct: Recombinant HCV polymerase (BK strain) was expressed and purified from E. coli with a 21 amino acid C-terminal deletion; His6; made in house; host or cells: E. coli
T1 sequence (P26663 2420-2989): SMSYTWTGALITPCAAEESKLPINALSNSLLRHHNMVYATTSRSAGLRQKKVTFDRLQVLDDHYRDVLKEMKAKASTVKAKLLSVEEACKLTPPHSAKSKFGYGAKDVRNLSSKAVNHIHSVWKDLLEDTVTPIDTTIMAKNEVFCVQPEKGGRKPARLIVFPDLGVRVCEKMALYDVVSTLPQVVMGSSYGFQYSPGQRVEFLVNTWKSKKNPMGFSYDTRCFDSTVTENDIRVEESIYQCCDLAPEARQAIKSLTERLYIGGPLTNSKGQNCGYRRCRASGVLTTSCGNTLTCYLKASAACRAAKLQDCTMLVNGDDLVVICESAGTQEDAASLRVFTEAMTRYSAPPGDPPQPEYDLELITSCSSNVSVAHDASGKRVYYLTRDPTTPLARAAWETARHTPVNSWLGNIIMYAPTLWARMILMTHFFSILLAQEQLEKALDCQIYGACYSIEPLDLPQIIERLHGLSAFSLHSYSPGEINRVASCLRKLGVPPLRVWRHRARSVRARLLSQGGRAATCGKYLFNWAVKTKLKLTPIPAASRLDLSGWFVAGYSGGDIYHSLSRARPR
In words: HCV polymerase enzyme assay (radiometric [33P]-UTP incorporation). It is filed as biochemical, HCV 1b. An outline of the steps:
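His6-tagged BK-strain NS5B lacking 21 C-terminal residues, expressed in E. coli, at 100 nM in Tris pH 7.5 with 5 mM MgCl2 and 3% DMSO. Substrates: 125 nM biotin-U13:0.63 μg/ml PolyA, 200 nM UTP plus [33P]-UTP; 100 min at 25° C. Incorporation read by streptavidin capture; IC50 from 8-point curve.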

The test system of series [3] is HCV replicon cells Huh 9B. In words: HCV replicon assay (luciferase). It counts as cell-based. The note with it: Hepatitis C virus, reduction of replicon level by 50% vs untreated cell control, 72 h. For orientation: Replicon systems follow genome replication, usually without infectious particles.

As for `CCOc1cc(Cl)cc(Cl)c1C1=N[C@@H](NC(=O)c2cc(F)ccc2OCCOC)C(=O)Nc2ccccc21` [Example 70, (R)—N-(5-(2,4-Dichloro-6-ethoxyphenyl)-2-oxo-2,3-dihydro-1H-benzo[e][1,4]diazepin-3-yl)-5-fluoro-2-(2-methoxyethoxy)benzamide], the “Replicon Assay Value TD50” value in series [1] worked out at 24.592 µM. For the same molecule, the results for the pIC50 in series [2] and in series [3] were 5.27 and 6.13, respectively.

For `CCOCCN(CC)c1ncc(F)cc1C(=O)NC1N=C(c2c(Cl)cc(Cl)cc2Cl)c2ccccc2NC1=O` (stereo not drawn) [Example 45, 2-((2-Ethoxyethyl)(ethyl)amino)-5-fluoro-N-(2-oxo-5-(2,4,6-trichlorophenyl)-2,3-dihydro-1H-benzo[e][1,4]diazepin-3-yl)nicotinamide], in series [1], the “Replicon Assay Value TD50” value is 18.864 µM. Besides, the pIC50 was 6.75 in series [2] and 6.12 in series [3].

For `CS(=O)(=O)CCOc1ccc(Cl)cc1C(=O)NC1N=C(c2c(Cl)cc(Cl)cc2Cl)c2ccccc2NC1=O` (stereo not drawn) [Example 29, 5-Chloro-2-(2-(methylsulfonyl)ethoxy)-N-(2-oxo-5-(2,4,6-trichlorophenyl)-2,3-dihydro-1H-benzo[e][1,4]diazepin-3-yl)benzamide], the “Replicon Assay Value TD50” value in series [1] stood at 15.249 µM. The pIC50 was 6.13 in series [2] and 5.56 in series [3].

For the molecule `CCC(=O)NCCCOc1ccc(Cl)cc1C(=O)NC1N=C(c2c(Cl)cc(Cl)cc2Cl)c2ccccc2NC1=O` (stereo not drawn) [Example 26, 5-Chloro-N-(2-oxo-5-(2,4,6-trichlorophenyl)-2,3-dihydro-1H-benzo[e][1,4]diazepin-3-yl)-2-(3-propionamidopropoxy)benzamide], the “Replicon Assay Value TD50” value in series [1] is 12.354 µM. Moreover, the pIC50 is 6.19 in series [2] and 5.79 in series [3].

Take `COCCN(c1ncc(F)cc1C(=O)NC1N=C(c2c(Cl)cc(Cl)cc2Cl)c2ccccc2NC1=O)C(C)C` (stereo not drawn) [Example 44, 5-Fluoro-2-(isopropyl(2-methoxyethyl)amino)-N-(2-oxo-5-(2,4,6-trichlorophenyl)-2,3-dihydro-1H-benzo[e][1,4]diazepin-3-yl)nicotinamide]: in series [1], the “Replicon Assay Value TD50” value amounted to 23.394 µM. Moreover, the pIC50 in series [2] is 5.88; in series [3], 5.58.

Consider `COCCOc1ccc(Cl)cc1C(=O)N[C@@H]1N=C(c2c(Cl)cc(Cl)cc2Cl)c2ccccc2NC1=O` [Example 60, (R)-5-Chloro-2-(2-methoxyethoxy)-N-(2-oxo-5-(2,4,6-trichlorophenyl)-2,3-dihydro-1H-benzo[e][1,4]diazepin-3-yl)benzamide], for which, in series [1], the “Replicon Assay Value TD50” value was more than 25 µM. Besides, the negative logarithm of the IC50 (pIC50) in series [2] is 4.56; in series [3], 6.10.

Regarding `CCOCCOc1ncc(F)cc1C(=O)NC1N=C(c2c(Cl)cc(Cl)cc2Cl)c2ccccc2NC1=O` (stereo not drawn) [Example 34, 2-(2-Ethoxyethoxy)-5-fluoro-N-(2-oxo-5-(2,4,6-trichlorophenyl)-2,3-dihydro-1H-benzo[e][1,4]diazepin-3-yl)nicotinamide], in series [1], the “Replicon Assay Value TD50” value is 11.884 µM. Also, the pIC50 was 7.04 in series [2] and 7.85 in series [3].

`CS(=O)(=O)NCCCOc1ccc(Cl)cc1C(=O)NC1N=C(c2c(Cl)cc(Cl)cc2Cl)c2ccccc2NC1=O` (stereo not drawn) [Example 27, 5-Chloro-2-(3-(methylsulfonamido)propoxy)-N-(2-oxo-5-(2,4,6-trichlorophenyl)-2,3-dihydro-1H-benzo[e][1,4]diazepin-3-yl)benzamide]: the “Replicon Assay Value TD50” value in series [1] is 13.62 µM. Besides, the pIC50 was 6.08 in series [2] and 5.72 in series [3].

As for `COCCOc1ccc(C(C)=O)cc1C(=O)NC1N=C(c2c(Cl)cc(Cl)cc2Cl)c2ccccc2NC1=O` (stereo not drawn) [Example 18, 5-Acetyl-2-(2-methoxyethoxy)-N-(2-oxo-5-(2,4,6-trichlorophenyl)-2,3-dihydro-1H-benzo[e][1,4]diazepin-3-yl)benzamide], in series [1], the “Replicon Assay Value TD50” value came out at 15.802 µM. Moreover, the pIC50 is 6.41 in series [2] and 6.06 in series [3].

Broadly, the pIC50 is the IC50 on a negative log10 scale, so that one unit is a factor of ten.
